In patent US9321760B2 (Merck Patent GmbH, priority 2011, dated 2016):

Molecular target: P70S6K (T412E mutant) (Homo sapiens (Human), UniProt P23443, T412E)
Assay: P70S6K enzyme assay
Format: biochemical
Settings: 3 nM P70S6K T412E mutant, 24 μM ATP, 1 μM FITC-AHA-AKRRRLSSLRA-OH substrate peptide, 90 min at 25° C.
Protocol: The IC50 values reported for the compounds in the Experimental section were derived from the following protocol for the p70S6K enzyme assay.
P70S6K inhibitor compounds were diluted and plated in 96 well plates. A reaction mixture including the following components was then added to the compound plate to initiate the enzyme reaction; P70S6K (3 nM, T412E mutant, Millipore) was mixed with 24 μM ATP in an assay buffer containing 100 mM Hepes (pH 7.5), 5 mM MgCl2, 1 mM DTT, 0.015% Brij and 1 μM of the substrate peptide FITC-AHA-AKRRRLSSLRA-OH (derived from the S6 ribosomal protein sequence, FITC=fluorescein isothiocyanate, AHA=6-aminohexanoic acid). The reaction was incubated for 90 min at 25° C., before the addition of 10 mM EDTA to stop the reaction. The proportion of substrate and product (phosphorylated) peptide was analysed on a Caliper Life Sciences Lab Chip 3000, using a pressure of −1.4 psi, and upstream and downstream voltages of −3000 and −700 respectively. Product peaks were resolved before substrate peaks on the resulting chromatograms.

Sequence of P70S6K (T412E mutant) (P23443 whole entry T412E): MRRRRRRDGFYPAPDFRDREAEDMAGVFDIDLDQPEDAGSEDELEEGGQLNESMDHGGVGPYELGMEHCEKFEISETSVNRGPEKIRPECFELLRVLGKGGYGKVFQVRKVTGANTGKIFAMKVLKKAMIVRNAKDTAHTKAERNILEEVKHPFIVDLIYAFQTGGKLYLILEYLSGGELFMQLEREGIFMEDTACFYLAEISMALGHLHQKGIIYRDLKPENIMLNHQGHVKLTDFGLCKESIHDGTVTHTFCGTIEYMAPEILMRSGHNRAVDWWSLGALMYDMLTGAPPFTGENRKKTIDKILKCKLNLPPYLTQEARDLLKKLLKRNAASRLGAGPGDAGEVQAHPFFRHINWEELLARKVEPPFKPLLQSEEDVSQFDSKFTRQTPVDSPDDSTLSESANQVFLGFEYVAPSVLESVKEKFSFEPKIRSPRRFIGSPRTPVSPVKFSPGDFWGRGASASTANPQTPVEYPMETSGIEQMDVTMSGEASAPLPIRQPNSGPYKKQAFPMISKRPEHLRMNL

| SMILES | IC50 [nM] |
| --- | --- |
| N#CC(c1ccc(Cl)c(Cl)c1)N1CCN(c2ncnc(N)c2-c2ccc(F)cc2)CC1 (centres unmarked) [Example 156, {4-[6-Amino-5-(4-fluoro-phenyl)-pyrimidin-4-yl]-piperazin-1-yl}-(3,4-dichloro-phenyl)-acetonitrile] | 130 |
| NC(=O)c1c(N)ncnc1N1CCC(N)(CNC(=O)c2ccc(F)cc2F)C1 (centres unmarked) [Example 197, 4-Amino-6-{3-amino-3-[(2,4-difluoro-benzoylamino)-methyl]-pyrrolidin-1-yl}-pyrimidine-5-carboxamide] | 530 |
| Nc1ncnc(N2CCN([C@H](CN3CCC3)c3cccc(F)c3)CC2)c1-c1ccc(F)cc1 [Example 102, 6-{4-[(S)-2-Azetidin-1-yl-1-(3-fluoro-phenyl)-ethyl]-piperazin-1-yl}-5-(4-fluoro-phenyl)-pyrimidin-4-ylamine] | 1400 |
| CN(C)CC(c1ccc(C(F)(F)F)cc1)N1CCN(c2ncnc(N)c2Br)CC1 (centres unmarked) [Example 14, 5-bromo-6-(4-(2-(dimethylamino)-1-(4-(trifluoromethyl)phenyl)ethyl)piperazin-1-yl)pyrimidin-4-amine] | 38 |
| N#Cc1c(N)ncnc1N1CCC(N)(C(=O)N[C@@H](CCO)c2ccncc2)CC1 [Example 231, 4-Amino-1-(6-amino-5-cyano-pyrimidin-4-yl)-piperidine-4-carboxylic acid ((S)-3-hydroxy-1-pyridin-4-yl-propyl)-amide] | 3600 |
| Cn1cc(-c2c(N)ncnc2N2CCN([C@@H](CN)c3ccc(C(F)(F)F)cc3)CC2)cn1 [Example 42, 6-{4-[(R)-2-Amino-1-(4-trifluoromethyl-phenyl)-ethyl]-piperazin-1-yl}-5-(1-methyl-1H-pyrazol-4-yl)-pyrimidin-4-ylamine] | 6 |
| CN(C)CC(c1ccc(C(F)(F)F)cc1)N1CCN(c2ncnc(N)c2-c2ccc(N)nc2)CC1 (centres unmarked) [Example 20, 5-(6-aminopyridin-3-yl)-6-(4-(2-(dimethylamino)-1-(4-(trifluoromethyl)-phenyl)ethyl)piperazin-1-yl)pyrimidin-4-amine] | 69 |
| NC[C@@H](c1ccc(C(F)(F)F)cc1)N1CCN(c2ncnc(N)c2-c2cn[nH]c2)CC1 [Example 9, (R)-6-(4-(2-amino-1-(4-(trifluoromethyl)phenyl)ethyl)piperazin-1-yl)-5-(1H-pyrazol-4-yl)pyrimidin-4-amine] | 5.7 |
| Nc1ncnc(N2CCC(N)(CNC(=O)c3ccc(F)cc3F)C2)c1-c1ccc(C(F)(F)F)cc1 (centres unmarked) [Example 202, N-{3-Amino-1-[6-amino-5-(4-trifluoromethyl-phenyl)-pyrimidin-4-yl]-pyrrolidin-3-ylmethyl}-2,4-difluoro-benzamide] | 9.1 |
| Cn1ccnc1C(c1ccccc1)N1CCN(c2ncnc(N)c2-c2ccc(F)cc2)CC1 (centres unmarked) [Example 30, 5-(4-Fluoro-phenyl)-6-{4-[(1-methyl-1H-imidazol-2-yl)-phenyl-methyl]-piperazin-1-yl}-pyrimidin-4-ylamine] | 34.5 |
| NC[C@H](c1ccc(C(F)(F)F)cc1)C1CCN(c2ncnc(N)c2-c2ccc(F)cc2)CC1 [Example 53, 6-{4-[(S)-2-Amino-1-(4-trifluoromethyl-phenyl)-ethyl]-piperidin-1-yl}-5-(4-fluoro-phenyl)-pyrimidin-4-ylamine] | 3.2 |
| Nc1ncnc(N2CCC(N)(C(=O)N[C@H](c3ccc(Cl)cc3)C(F)(F)F)CC2)c1Cl [Example 216, 4-Amino-1-(6-amino-5-chloro-pyrimidin-4-yl)-piperidine-4-carboxylic acid [(R)-1-(4-chloro-phenyl)-2,2,2-trifluoroethyl]-amide] | 820 |
| Nc1ncnc(N2CCC(N)(CNC(=O)c3ccc(F)cc3F)C2)c1-c1ccncc1 (centres unmarked) [Example 205, N-[3-Amino-1-(6-amino-5-pyridin-4-yl-pyrimidin-4-yl)-pyrrolidin-3-ylmethyl]-2,4-difluoro-benzamide] | 25 |
| Nc1ncnc(N2CCC(Cc3ccc(C(F)(F)F)cc3)CC2)c1Br [Example 47, 5-Bromo-6{4-(4-trifluoromethylbenzyl)-piperidin-1-yl}pyrimidin-4-amine] | 960 |
| NCC(c1ccc(Cl)c(F)c1)N1CCN(c2ncnc(N)c2-c2cn[nH]c2)CC1 (centres unmarked) [Example 187, 6-(4-(2-amino-1-(4-chloro-3-fluorophenyl)ethyl)piperazin-1-yl)-5-(1H-pyrazol-4-yl)pyrimidin-4-amine] | 6.1 |
| CCc1c(N)ncnc1N1CCN(C(CN)C2CCCCC2)CC1 (centres unmarked) [Example 188, 6-[4-(2-Amino-1-cyclohexyl-ethyl)-piperazin-1-yl]-5-ethyl-pyrimidin-4-ylamine] | > 1000 |
| Nc1ncnc(N2CCN(C(CN3CCC3)c3ccc(C(F)(F)F)c(F)c3)CC2)c1-c1cn[nH]c1 (centres unmarked) [Example 127, 6-{4-[2-Azetidin-1-yl-1-(3-fluoro-4-trifluoromethyl-phenyl)-ethyl]-piperazin-1-yl}-5-(1H-pyrazol-4-yl)-pyrimidin-4-ylamine] | 550 |
| NC(=O)c1c(N)ncnc1N1CCC(N)(C(=O)N[C@@H](CCO)c2ccc(C(F)(F)F)cc2)CC1 [Example 233, 4-Amino-6-{4-amino-4-[(S)-3-hydroxy-1-(4-trifluoromethyl-phenyl)-propylcarbamoyl]-piperidin-1-yl}-pyrimidine-5-carboxylic acid amide] | 41000 |
| Nc1ncnc(N2CCN(C(CN3CCCCC3)c3ccc(C(F)(F)F)cc3)CC2)c1Br (centres unmarked) [Example 11, 5-bromo-6-(4-(2-(piperidin-1-yl)-1-(4-(trifluoromethyl)phenyl)ethyl)piperazin-1-yl)pyrimidin-4-amine] | 280 |
| CC[C@H](NC(=O)C1(N)CCN(c2ncnc(N)c2C(N)=O)CC1)c1ccc(Cl)cc1 [Example 245, 4-Amino-6-{4-amino-4-[(S)-1-(4-chloro-phenyl)-propylcarbamoyl]-piperidin-1-yl}-pyrimidine-5-carboxylic acid amide] | 2400 |
| Nc1ncnc(N2CCC(C(O)c3ccc(-c4ccc(F)cc4)cc3)CC2)c1-c1ccc(F)cc1 (centres unmarked) [Example 139] | 17 |
| CN(C)CCNC(=O)C(c1ccc(C(F)(F)F)cc1)N1CCN(c2ncnc(N)c2-c2ccc(F)cc2)CC1 (centres unmarked) [Example 18, 2-(4-(6-amino-5-(4-fluorophenyl)pyrimidin-4-yl)piperazin-1-yl)-N-(2-(dimethylamino)ethyl)-2-(4-(trifluoromethyl)phenyl)acetamide] | 18 |
| CCc1c(N)ncnc1N1CCN(C(CN)c2ccc3c(c2)OCCO3)CC1 (centres unmarked) [Example 181, 6-{4-[2-Amino-1-(2,3-dihydro-benzo[1,4]dioxin-6-yl)-ethyl]-piperazin-1-yl}-5-ethyl-pyrimidin-4-ylamine] | 180 |
| NCC(c1ccc(C(F)(F)F)cc1)C1CCN(c2ncnc(N)c2-c2ccc(F)cc2)CC1 (centres unmarked) [Example 52, 6-{4-[2-Amino-1-(4-trifluoromethyl-phenyl)-ethyl]-piperidin-1-yl}-5-(4-fluoro-phenyl)-pyrimidin-4-ylamine] | 3.3 |
| NCC(c1ccc(C(F)(F)F)cc1)C1CCN(c2ncnc(N)c2-c2cn[nH]c2)CC1 (centres unmarked) [Example 55, 6-(4-(2-amino-1-(4-(trifluoromethyl)phenyl)ethyl)piperidin-1-yl)-5-(1H-pyrazol-4-yl)pyrimidin-4-amine] | 5.2 |
| NCC(c1ccc(C(F)(F)F)cc1)N1CCN(c2ncnc(N)c2-c2cn[nH]c2)CC1 (centres unmarked) [Example 7, 6-{4-[2-Amino-1-(4-trifluoromethyl-phenyl)-ethyl]-piperazin-1-yl}-5-(1H-pyrazol-4-yl)-pyrimidin-4-ylamine] | 2.8 |
